Results: ChEMBL document CHEMBL1123545 (J Med Chem, 1986)
≈ marks a conversion by molar mass, not a printed value.

How the values were obtained:
L1210 [1] = experiment: (§1) Compound was evaluated for transport properties against L1210 cells for influx; format: functional, cell-based, Mus musculus
L1210 [2] = experiment: as §1; format: functional, Mus musculus
Dihydrofolate reductase = target: T1, Dihydrofolate reductase (Mus musculus, UniProt P00375); experiment: Compound was evaluated for binding affinity against Dihydrofolate reductase of L1210 cells; format: cell-based
T1 sequence (P00375 whole entry): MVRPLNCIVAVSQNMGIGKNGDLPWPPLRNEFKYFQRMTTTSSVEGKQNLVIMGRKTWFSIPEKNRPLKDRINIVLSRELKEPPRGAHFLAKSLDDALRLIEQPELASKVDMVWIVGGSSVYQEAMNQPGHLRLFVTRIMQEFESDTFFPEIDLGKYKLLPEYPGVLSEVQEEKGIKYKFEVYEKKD

L1210 [3] = experiment: Compound was evaluated for growth inhibition and minimal inhibitory concentration was reported against L1210 cells.; format: functional, Mus musculus
Mus musculus [4] = experiment: (§2) Antitumor activity against L1210 leukemia in mice after subcutaneous administration (Q2Dx5) at a dose 9 mg/kg out of 10 mice tested; format: functional
Lacticaseibacillus casei = experiment: Compound was evaluated for growth inhibition against Lactobacillus casei ATCC 7469; format: functional, organism-based
Mus musculus [5] = experiment: (§3) Antitumor activity against L1210 leukemia in mice after subcutaneous administration (Q2Dx5) at a dose 12 mg/kg out of 10 mice tested; format: ADME, organism-based; set-up: dose 12 mg/kg, route subcutaneous; details: in vivo, sc
Enterococcus faecium = experiment: Compound was evaluated for growth inhibition against Streptococcus faecium ATCC 8043; format: functional, organism-based
L1210 [6] = experiment: Compound was evaluated for transport properties against L1210 cells for efflux; format: functional, Mus musculus
Mus musculus [7] = experiment: (§4) Antitumor activity against L1210 leukemia in mice after subcutaneous administration (Q2Dx5) at a dose 18 mg/kg out of 10 mice tested; format: ADME, organism-based; set-up: dose 18 mg/kg, route subcutaneous; details: in vivo, sc
Mus musculus [8] = experiment: Compound was evaluated for antitumor activity against L1210 leukemia in mice after subcutaneous administration (Q2Dx5) at a dose 18 mg/kg; format: functional
Mus musculus [9] = experiment: (§5) Antitumor activity against L1210 leukemia in mice after subcutaneous administration (Q2Dx5) at a dose 24 mg/kg out of 10 mice tested; format: ADME, organism-based; set-up: dose 24 mg/kg, route subcutaneous; details: in vivo, sc
Mus musculus [10] = experiment: as §2; format: ADME, organism-based; set-up: dose 9 mg/kg, route subcutaneous; details: in vivo, sc
Mus musculus [11] = experiment: Compound was evaluated for antitumor activity against L1210 leukemia in mice after subcutaneous administration (Q2Dx5) at a dose 24 mg/kg; format: functional; details: for ILS at 24 mg/kg: L1210, sc
Mus musculus [12] = experiment: Compound was evaluated for antitumor activity against L1210 leukemia in mice after subcutaneous administration (Q2Dx5) at a dose 9 mg/kg; format: functional
Mus musculus [13] = experiment: Compound was evaluated for antitumor activity against L1210 leukemia in mice after subcutaneous administration (Q2Dx5) at a dose 12 mg/kg; format: functional
Mus musculus [14] = experiment: as §5; format: functional
Mus musculus [15] = experiment: as §4; format: functional
Mus musculus [16] = experiment: as §3; format: functional
Mus musculus [17] = experiment: (§6) Antitumor activity against L1210 leukemia in mice after subcutaneous administration (Q2Dx5) at a dose 9 mg/kg out of 6 mice tested; format: functional
Mus musculus [18] = experiment: Antitumor activity against L1210 leukemia in mice after subcutaneous administration (Q2Dx5) at a dose 18 mg/kg out of 9 mice tested; format: ADME, organism-based; set-up: dose 18 mg/kg, route subcutaneous; details: in vivo, sc
Mus musculus [19] = experiment: as §6; format: ADME, organism-based; set-up: dose 9 mg/kg, route subcutaneous; details: in vivo, sc
Mus musculus [20] = experiment: (§7) Antitumor activity against L1210 leukemia in mice after subcutaneous administration (Q2Dx5) at a dose 12 mg/kg out of 9 mice tested; format: functional
Mus musculus [21] = experiment: (§8) Antitumor activity against L1210 leukemia in mice after subcutaneous administration (Q2Dx5) at a dose 24 mg/kg out of 3 mice tested; format: functional
Mus musculus [22] = experiment: Antitumor activity against L1210 leukemia in mice after subcutaneous administration (Q2Dx5) at a dose 18/mg/kg out of 9 mice tested; format: functional
Mus musculus [23] = experiment: as §7; format: ADME, organism-based; set-up: dose 12 mg/kg, route subcutaneous; details: in vivo, sc
Mus musculus [24] = experiment: as §8; format: ADME, organism-based; set-up: dose 24 mg/kg, route subcutaneous; details: in vivo, sc
[25] = Enterococcus faecium, ATCC 8043, read-out: IC50

Row | Structure (SMILES) | Ki (L1210 [1]) [nM] | k (L1210 [2]) [min⁻¹] | Ki (Dihydrofolate reductase) [nM] | MIC50 (L1210 [3]; Mus musculus) [nM] | k (L1210 [6]) [min⁻¹] | MST (Mus musculus [8]) [days] | MST (Mus musculus [11]) [days] | ILS at 24 mg/kg (Mus musculus [11]) [%] | MST (Mus musculus [12]) [days] | MST (Mus musculus [13]) [days] | IC50 (Enterococcus faecium; [25]) [ng/mL] | further results
1 | C[C@H](Cc1cnc2nc(N)nc(N)c2n1)c1ccc(C(=O)N[C@@H](CCC(=O)O)C(=O)O)cc1 (stereo in doubt; d-L-15a) | 1910 | 0.258 | 0.00424 | 0.68 (≈ 0.308 ng/mL) | – | – | – | – | – | – | – | –
2 | CN(Cc1cnc2nc(N)nc(N)c2n1)c1ccc(C(=O)N[C@@H](CCC(=O)O)C(=O)O)cc1 [METHOTREXATE] | 5610 | – | – | 2.48 (≈ 1.13 ng/mL) | 0.213 | 14.5 | 9.6 | 46 | 15.7 | 16.3 | – | 30 days survivors (Mus musculus [4]): 0; IC50 (Lacticaseibacillus casei): 0.013 ng/mL (≈ 0.0286 nM); Toxic deaths (Mus musculus [5]): 1; IC50 (Enterococcus faecium): 0.4 ng/mL (≈ 0.88 nM); Toxic deaths (Mus musculus [7]): 6; ILS (Mus musculus [8]): 119%; Toxic deaths (Mus musculus [9]): 10; Toxic deaths (Mus musculus [10]): 0; ILS (Mus musculus [12]): 137%; 30 days survivors (Mus musculus [14]): 0; 30 days survivors (Mus musculus [15]): 0; 30 days survivors (Mus musculus [16]): 0
3 | CC[C@H](Cc1cnc2nc(N)nc(N)c2n1)c1ccc(C(=O)N[C@@H](CCC(=O)O)C(=O)O)cc1 | 1580 | – | – | 0.43 (≈ 0.201 ng/mL) | 0.253 | 17.5 | 10 | 55 | 18.3 | 19.8 | – | 30 days survivors (Mus musculus [17]): 0; Toxic deaths (Mus musculus [18]): 5; Toxic deaths (Mus musculus [19]): 0; ILS at 18 mg/kg (Mus musculus [8]; L1210, sc): 165%; 30 days survivors (Mus musculus [20]): 0; 30 days survivors (Mus musculus [21]): 0; 30 days survivors (Mus musculus [22]): 1; ILS at 9 mg/kg (Mus musculus [12]; Mus musculus, L1210, sc): 177%; ILS at 12 mg/kg (Mus musculus [13]; L1210, sc): 199%; Toxic deaths (Mus musculus [23]): 3; Toxic deaths (Mus musculus [24]): 3
4 | CCC(CC1CNc2nc(N)nc(N)c2N1)c1ccc(C(=O)NC(CCC(=O)O)C(=O)O)cc1 (racemic) | – | – | – | – | – | – | – | – | – | – | 2.6 (≈ 5.51 nM) | –
5 | C[C@H](Cc1cnc2nc(N)nc(N)c2n1)c1ccc(C(=O)N[C@@H](CCC(=O)O)C(=O)O)cc1 (stereo in doubt; l-L-15a) | 1900 | 0.267 | 0.00317 | – | – | – | – | – | – | – | – | MIC50 (L1210 [3]): 1.18 nM (≈ 0.535 ng/mL)
6 | CC[C@H](CC1CNc2nc(N)nc(N)c2N1)c1ccc(C(=O)N[C@@H](CCC(=O)O)C(=O)O)cc1 (mixture of isomers) | – | – | – | – | – | – | – | – | – | – | 2.5 | –
